Results as given in patent publication US9820972B2, “Antiviral compounds highly effective as HCV-NS5A inhibitor” (priority 2013, dated 2017).
Like-named read-outs stand apart in the source and are kept apart here.

System: GT-1a of NS5A Replicon
Test: HCV double reporter gene (Renilla luciferase) replicon assay, GT-1a
Format: cell-based, Hepatitis C virus (HCV)
Details: Hepatitis C virus, GT1A, read-out: EC50 For GT-1a of NS5A Replicon
How it was run: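 Replication measured in a double-reporter HCV replicon cell system by Renilla luciferase signal. EC50 from 8-point 2-fold dilutions, triplicate wells, three repeats, with 1 or 2 control drugs.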

Row | SMILES | EC50 (GT-1a replicon, class symbols) [pM] | EC50 [pM]
1 | COC(=O)N[C@H](C(=O)N1CCCC1c1nc2cc(-c3ccc4c(c3)C(F)(F)c3cc(-c5c[nH]c([C@@H]6CN(C(=O)N7Cc8cc9c(cc8C7)OCO9)CN6C(=O)[C@@H](NC(=O)OC)C(C)C)n5)ccc3-4)ccc2[nH]1)C(C)C (stereo partly drawn) [Compound 6bs] | > 50000 | 
2 | COC(=O)N[C@H](C(=O)N1CC=CC1c1nc(-c2ccc(-c3ccc(-c4c[nH]c([C@@H]5CCCN5C(=O)C5(NC(=O)OC)CC5)n4)cc3)cc2)c[nH]1)C(C)C (stereo partly drawn) [Compound 6bh] | 1 to 999 | 
3 | COC(=O)N[C@H](C(=O)N1CCC(O)[C@H]1c1ncc(-c2ccc(-c3ccc(-c4cnc([C@@H]5C=CCN5C(=O)[C@@H](NC(=O)OC)C(C)C)[nH]4)cc3)cc2)[nH]1)C(C)C (stereo partly drawn) [Compound 6dr] | 1 to 999 | 
4 | COC(=O)N[C@H](C(=O)N1CN(C(=O)N2Cc3cc4c(cc3C2)OCO4)CC1c1nc(-c2ccc(-c3ccc(-c4c[nH]c([C@@H]5CCCN5C(=O)[C@@H](NC(=O)OC)C(C)C)n4)cc3)cc2)c[nH]1)C(C)C (stereo partly drawn) [Compound 6af] | 1 to 999 | 
5 | CC(C)(C)OC(=O)N[C@H](C(=O)N1CCC[C@H]1c1nc(-c2ccc(-c3ccc(-c4cnc([C@@H]5C[C@@H](OC(=O)N6Cc7ccc8c(c7C6)OCO8)CN5C(=O)[C@@H](NC(=O)OC(C)(C)C)C(C)(C)C)[nH]4)cc3)cc2)c[nH]1)C(C)(C)C [Compound 6c] | > 50000 | 
6 | COC(=O)NC(C(=O)N1CC=C[C@H]1c1ncc(-c2ccc(-c3ccc(-c4cnc([C@@H]5CCCN5C(=O)[C@@H](NC(=O)OC)C(C)C)[nH]4)cc3)cc2)[nH]1)C1CCCC1 (stereo partly drawn) [Compound 6dh] | 1 to 999 | 
7 | CC(C)[C@H](NC(=O)OC(C)(C)C)C(=O)N1C[C@H](OC(=O)N2Cc3cc4c(cc3C2)OCO4)C[C@H]1c1nc(-c2ccc(-c3ccc(-c4cnc([C@@H]5C[C@@H](OC(=O)N6Cc7cc8c(cc7C6)OCO8)CN5C(=O)[C@@H](NC(=O)OC(C)(C)C)C(C)C)[nH]4)cc3)cc2)c[nH]1 [Compound 6p] |  | > 50000
8 | COC(=O)N[C@H](C(=O)N1CN(C(=O)N2Cc3ccc4c(c3C2)OCO4)CC1c1nc(-c2ccc(-c3ccc(-c4c[nH]c([C@@H]5CCCN5C(=O)[C@@H](NC(=O)OC)C(C)C)n4)cc3)cc2)c[nH]1)C(C)C (stereo partly drawn) [Compound 6ae] | 1 to 999 | 
9 | COC(=O)N[C@H](C(=O)N1CC2(C[C@H]1c1ncc(-c3ccc(-c4ccc(-c5c[nH]c([C@@H]6C=CCN6C(=O)[C@H](NC(=O)OC)c6ccccc6)n5)cc4)cc3)[nH]1)OCCO2)C(C)C [Compound 6dw] | 1 to 999 | 
10 | COC(=O)N[C@H](C(=O)N1CN(C(=O)N2Cc3ccc(OC)cc3C2)CC1c1nc(-c2ccc(-c3ccc(-c4c[nH]c([C@@H]5CCCN5C(=O)[C@@H](NC(=O)OC)C(C)C)n4)cc3)cc2)c[nH]1)C(C)C (stereo partly drawn) [Compound 6av] | 1 to 999 | 
11 | COC(=O)N[C@H](C(=O)N1CC(OC(=O)N2Cc3cc4c(cc3C2)OCO4)CC1c1nc(-c2ccc3c(c2)Cc2cc(-c4c[nH]c([C@@H]5CCCN5C(=O)[C@@H](NC(=O)OC)C(C)C)n4)ccc2-3)c[nH]1)C(C)C (stereo partly drawn) [Compound 6az] | 1 to 999 | 
12 | COC(=O)N[C@H](C(=O)N1CN(C(=O)N2Cc3ccc(Cl)cc3C2)CC1c1nc(-c2ccc(-c3ccc(-c4c[nH]c([C@@H]5CCCN5C(=O)[C@@H](NC(=O)OC)C(C)C)n4)cc3)cc2)c[nH]1)C(C)C (stereo partly drawn) [Compound 6au] | 1 to 999 | 
13 | CC(C)[C@H](NC(=O)OC1CCCC1)C(=O)N1C[C@H](OC(=O)N2Cc3ccc4c(c3C2)OCO4)C[C@H]1c1nc(-c2ccc(-c3ccc(-c4cnc([C@@H]5C[C@@H](OC(=O)N6Cc7ccc8c(c7C6)OCO8)CN5C(=O)[C@@H](NC(=O)OC5CCCC5)C(C)C)[nH]4)cc3)cc2)c[nH]1 [Compound 6g] |  | > 50000
14 | COC(=O)NC(C(=O)N1CCC[C@H]1c1nc(-c2ccc(-c3ccc(-c4c[nH]c(C5CN(C(=O)N6Cc7ccc8c(c7C6)OCO8)CN5C(=O)[C@@H](NC(=O)OC)C(C)C)n4)cc3)cc2)c[nH]1)c1ccccc1 (stereo partly drawn) [Compound 6ay] | 1 to 999 | 
15 | CC(C)[C@H](NC(=O)OC1CCCC1)C(=O)N1CCC[C@H]1c1nc(-c2ccc(-c3ccc(-c4cnc([C@@H]5C[C@@H](OC(=O)N6Cc7ccc8c(c7C6)OCO8)CN5C(=O)[C@@H](NC(=O)OC5CCCC5)C(C)C)[nH]4)cc3)cc2)c[nH]1 [Compound 6h] | > 50000 | 
